The text below walks through data of PubChem BioAssay (NCI).

Some test systems named below: KM12 colon; SF-295 CNS; NCI/ADR-RES ovarian; CAKI-1 renal; NCI-H460 lung; NCI-H522 lung; MDA-MB-435; OVCAR-8 ovarian; HL-60(TB) leukemia; UO-31 renal.
Holding throughout (assay): NCI-60 cell line screen, 48 h

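Assay format: 96-well plates, 48-hour exposure. Abbreviation: GI50, concentration required for 50% inhibition of growth. TGI marks complete inhibition of growth.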 A value given as a limit tells only on which side of the number the result lay.

As for `Cc1nn(C(=O)c2ccc(Cl)cc2)c2c1C(c1ccco1)SC(N)=N2` (stereo not drawn), the TGI with KM12 colon, in the assay with SF-295 CNS, in the assay with NCI/ADR-RES ovarian, in the assay with CAKI-1 renal, with NCI-H460 lung and with NCI-H522 lung was above 10 µM throughout. The TGI in the assay with MDA-MB-435, in the assay on OVCAR-8 ovarian and in the assay with HL-60(TB) leukemia was above 10 µM in each case.

Regarding `CN(/N=C/c1ccc(Cl)c(Cl)c1)C1=NCCN1`, the TGI with KM12 colon is 67.6 µM; with SF-295 CNS, 69 µM; in the assay on NCI/ADR-RES ovarian it was above 100 µM; in the assay with CAKI-1 renal, 37.8 µM; in the assay with NCI-H460 lung, above 100 µM; in the assay on NCI-H522 lung, 27.8 µM. For the same molecule, the TGI in the assay on MDA-MB-435 is 44.6 µM; with OVCAR-8 ovarian, above 100 µM.

`CCOC(=O)CCC(NC(=O)c1ccc(NCc2ccc3nc(-c4ccccc4)c(Cl)nc3c2)c2ccccc12)C(=O)OCC` (stereo not drawn): the TGI in the assay with KM12 colon, in the assay with SF-295 CNS, with NCI/ADR-RES ovarian, with CAKI-1 renal, in the assay with NCI-H460 lung and with UO-31 renal was above 100 µM throughout. The TGI with NCI-H522 lung, in the assay with MDA-MB-435 and in the assay with OVCAR-8 ovarian was above 100 µM in each case.

For `O=C1/C(=C2\SCC(=O)N2c2ccccc2)SC(=S)N1c1ccccc1`, the TGI was above 100 µM in the assay with KM12 colon; 82.7 µM in the assay on SF-295 CNS; 90.7 µM with NCI/ADR-RES ovarian; 57.1 µM in the assay on CAKI-1 renal; above 100 µM with NCI-H460 lung; above 100 µM in the assay on MDA-MB-435. The TGI in the assay with OVCAR-8 ovarian and with HL-60(TB) leukemia was above 100 µM each time.

As to `Cc1ccc(C2(c3ccc(C)c(O)c3C)CCN(C)CC2)c(C)c1O`, the TGI with KM12 colon, with SF-295 CNS, with NCI/ADR-RES ovarian, with CAKI-1 renal, with NCI-H460 lung and in the assay with UO-31 renal was above 100 µM in each case. Also, the TGI with NCI-H522 lung, in the assay with MDA-MB-435 and in the assay with OVCAR-8 ovarian was above 100 µM throughout.

Take `Clc1ccc(-c2nn3c(C45CC6CC(CC(C6)C4)C5)nnc3s2)cc1`: the TGI in the assay on KM12 colon, in the assay with SF-295 CNS, in the assay with NCI/ADR-RES ovarian, in the assay on CAKI-1 renal, in the assay with NCI-H460 lung and in the assay on UO-31 renal was above 100 µM throughout. For the same molecule, the TGI with NCI-H522 lung, in the assay on MDA-MB-435 and with HL-60(TB) leukemia was above 100 µM throughout.

On to `O=C(NNCc1ccccc1O)c1ccccc1O`, for which the TGI was above 100 µM in the assay on KM12 colon; 17.4 µM in the assay with SF-295 CNS; 40.4 µM in the assay on NCI/ADR-RES ovarian; above 100 µM in the assay on CAKI-1 renal; 16.5 µM in the assay with UO-31 renal; above 100 µM in the assay with NCI-H522 lung. Besides, the TGI in the assay with MDA-MB-435 was above 100 µM; in the assay with OVCAR-8 ovarian it was above 100 µM; in the assay with HL-60(TB) leukemia, 4.17 µM.

For `CC(C)=CCC/C(C)=C/CC/C(C)=C/CSc1ccc(Cl)cc1C(=O)O`, the TGI is 32.3 µM in the assay on KM12 colon; 31.4 µM in the assay with SF-295 CNS; 43.5 µM in the assay with CAKI-1 renal; 32.7 µM with NCI-H460 lung; 31.4 µM in the assay with UO-31 renal; 42.2 µM with MDA-MB-435. In addition, the TGI with OVCAR-8 ovarian was determined as 42.1 µM; in the assay with HL-60(TB) leukemia it was 50.8 µM.

In the case of `c1ccc2nn(C3CCCCO3)nc2c1` (stereo not drawn), the TGI in the assay with KM12 colon, with SF-295 CNS, in the assay on NCI/ADR-RES ovarian, in the assay with CAKI-1 renal, in the assay on NCI-H460 lung and in the assay with UO-31 renal was above 100 µM throughout. In addition, the TGI in the assay on NCI-H522 lung, in the assay on MDA-MB-435 and with OVCAR-8 ovarian was above 100 µM throughout.

As to `COC1=CCC2=C(CCN(C(=O)C3CCC3)C2Cc2ccc(OC)c(O)c2)C1` (stereo not drawn), the TGI in the assay with KM12 colon is above 100 µM; in the assay on SF-295 CNS, 45.4 µM; in the assay on NCI/ADR-RES ovarian, 41.4 µM; in the assay on CAKI-1 renal, above 100 µM; with NCI-H460 lung, 31.1 µM; with NCI-H522 lung, 42 µM. Further, the TGI in the assay on MDA-MB-435 is 10.5 µM; in the assay on OVCAR-8 ovarian it was above 100 µM; in the assay with HL-60(TB) leukemia, 51.5 µM.

For `CC(C)(C)OC(=O)N1C/C=C\C(=O)C2(OCCO2)c2ccccc21`, the TGI was above 100 µM in the assay with KM12 colon; 73.9 µM in the assay on SF-295 CNS; above 100 µM in the assay with NCI/ADR-RES ovarian; above 100 µM in the assay on CAKI-1 renal; 50.5 µM with NCI-H460 lung; 43.1 µM in the assay with UO-31 renal. Further, the TGI with NCI-H522 lung is 78.8 µM; in the assay with MDA-MB-435, 34 µM; with OVCAR-8 ovarian it was 86.6 µM.

With `C/C(=C/c1c(C)[nH]c(=O)[nH]c1=O)C(=O)O`, the TGI with KM12 colon, in the assay with SF-295 CNS, in the assay with NCI/ADR-RES ovarian, in the assay with CAKI-1 renal, in the assay with NCI-H460 lung and in the assay with UO-31 renal was above 1380 µM in each case. In addition, the TGI with NCI-H522 lung, in the assay with OVCAR-8 ovarian and in the assay with HL-60(TB) leukemia was above 1380 µM in each case. Besides, the GI50 with OVCAR-8 ovarian is above 1380 µM.

Take `C1=C[C@]2(CCC13OCCO3)COc1ccccc12`: the TGI was 75.5 µM in the assay on KM12 colon; above 100 µM in the assay with SF-295 CNS; 96.4 µM with NCI/ADR-RES ovarian; above 100 µM in the assay with CAKI-1 renal; above 100 µM in the assay on NCI-H460 lung; above 100 µM in the assay with UO-31 renal. Moreover, the TGI was above 100 µM in the assay on MDA-MB-435, above 100 µM in the assay on OVCAR-8 ovarian and 38.4 µM with HL-60(TB) leukemia.

On to `CC(CC(C)(C)[N+](C)(C)C)[N+](C)(C)C` (stereo not drawn), for which the TGI with KM12 colon, in the assay with SF-295 CNS, in the assay on NCI/ADR-RES ovarian, in the assay on CAKI-1 renal, with NCI-H460 lung and in the assay with UO-31 renal was above 100 µM each time. The TGI in the assay on NCI-H522 lung, with OVCAR-8 ovarian and in the assay on HL-60(TB) leukemia was above 100 µM throughout.

For the molecule `Cn1c(=O)c2[nH]c(-n3nc(-c4ccccc4)cc3N)nc2n(C)c1=O`, the TGI in the assay with KM12 colon was above 100 µM; with SF-295 CNS it was above 100 µM; in the assay with NCI/ADR-RES ovarian it was 14.2 µM; in the assay on CAKI-1 renal, 15 µM; in the assay on NCI-H460 lung, above 100 µM; in the assay on UO-31 renal it was above 100 µM. The TGI in the assay on MDA-MB-435 is above 100 µM; in the assay on OVCAR-8 ovarian, 97.7 µM; in the assay with HL-60(TB) leukemia, 61.2 µM.
